Format in all cases: functional, cell-based
In series [1] the target is T1, Solute carrier family 22 member 7 (Homo sapiens, UniProt Q9Y694).
T1 sequence (Q9Y694 whole entry): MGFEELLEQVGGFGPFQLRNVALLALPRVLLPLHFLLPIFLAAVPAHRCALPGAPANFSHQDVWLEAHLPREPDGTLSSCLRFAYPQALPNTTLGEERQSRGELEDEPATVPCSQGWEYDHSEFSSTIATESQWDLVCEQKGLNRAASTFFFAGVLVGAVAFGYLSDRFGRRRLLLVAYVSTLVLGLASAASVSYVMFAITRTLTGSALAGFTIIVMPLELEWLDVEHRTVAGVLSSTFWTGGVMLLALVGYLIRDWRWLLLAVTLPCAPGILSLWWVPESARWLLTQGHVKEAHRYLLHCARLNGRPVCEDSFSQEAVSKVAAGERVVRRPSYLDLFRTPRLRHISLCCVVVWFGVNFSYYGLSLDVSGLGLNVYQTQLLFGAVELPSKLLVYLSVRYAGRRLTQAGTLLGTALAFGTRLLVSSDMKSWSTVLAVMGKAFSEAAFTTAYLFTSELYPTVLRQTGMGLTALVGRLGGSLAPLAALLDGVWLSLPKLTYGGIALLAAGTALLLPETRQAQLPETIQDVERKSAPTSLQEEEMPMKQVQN
In words: TP_TRANSPORTER: uptake in OAT2-expressing EcR293 cells.

Series [2] has as its target T1, Solute carrier family 22 member 7. Nature of the series: TP_TRANSPORTER: inhibition of PAH uptake (alpha-KG: 500 uM) in OAT2-expressing EcR293 cells. The note with it: ecr293, 500 µM.
The target is the same in series [3]. In words: TP_TRANSPORTER: inhibition of PAH uptake (BSP: 100 uM) in OAT2-expressing EcR293 cells. The settings on record: ecr293, 100 µM.

Consider four compounds from ChEMBL document CHEMBL2073787, “Isolation of a family of organic anion transporters from human liver and kidney” (Biochem Biophys Res Commun, 2001).

As for `O=C(O)CCC(=O)C(=O)O` [ALPHA-KETOGLUTARIC ACID], the Activity result in series [1] was “substrate [+]”; in series [2], “is not an inhibitor [-]”.

Regarding `CN(Cc1cnc2nc(N)nc(N)c2n1)c1ccc(C(=O)N[C@@H](CCC(=O)O)C(=O)O)cc1` [METHOTREXATE], the Activity entry in series [1] was “substrate [+]”.

Regarding `O=C1OC(c2ccc(O)c(S(=O)(=O)[O-])c2)(c2ccc(O)c(S(=O)(=O)[O-])c2)c2c(Br)c(Br)c(Br)c(Br)c21.[Na+].[Na+]` [SULFOBROMOPHTHALEIN SODIUM], the Activity result in series [3] was “inhibitor [+]”.

Turning to `Nc1ccc(C(=O)NCC(=O)O)cc1` [AMINOHIPPURIC ACID], the Activity result in series [1] was “substrate [+]”.
